One series relates to OVCAR-3 xenograft tumors. As to the kind of experiment: OVCAR-3 xenograft tumor animal model, tumor growth. The class given is in vivo, mouse. The conditions noted are these: 10 mg/kg/day by gavage, 5 days/week, 4 weeks; t-test on day 29. As for the experimental part: Groups of 5 mice bearing OVCAR-3 xenografted tumors were gavaged daily with the indicated drugs in sesame oil (▪ closed square) or with sesame oil alone (∘ open circle). Tumor volumes were measured in 3 dimensions with calipers weekly. Each data point represents the average and standard error of the tumor volumes on the indicated treatment day relative to the tumor volume on day zero. Nu/nu mice were injected subcutaneously with one million OVCAR-3 cells and arbitrarily divided into five groups of six mice each. After three weeks of tumor growth, the animals were gavaged with sesame oil, 10 mg/kg/day 4-HPR, or the indicated Het five times per week for four weeks and the tumors were measured once per week. The tumor sizes were averaged and divided by the average size for each group on the day that treatment was initiated (day 0).
The OVCAR-3 cultures were maintained in RPMI media supplemented with 10% fetal bovine serum. All animal experimentation described in this manuscript was conducted in accord with accepted standards of humane animal care. Twenty-five female NU/NU CD-1 female mice (Charles Rivers Laboratories) were housed in a laminar flow room under sterile conditions at 83-85° F. The mice were quarantined for one week prior to the beginning of the study and were allowed access to autoclaved food (Purina 5001 mouse/rat sterilizable diet, St. Louis, Mo.) and water ad libitum. OVCAR-3 cells in log phase growth were harvested by trypsinization, resuspended in RPMI culture medium, and centrifuged at 3,000 rpm for 10 min. The pellets were resuspended in RPMI culture medium at a concentration of 7×10^6 cells/ml before implantation into mice. Animals were injected with 3.5×10^6 cells into the right scapular region with a 24-gauge needle/1 cc tuberculin syringe. Twenty-four hours after tumor implantation, animals were randomized into 5 groups of 5 animals each.
The Hets SHet50, SHetA2 and SHetA4 were synthesized and their receptor specificity determined as previously described (17,19). The 4-HPR compound was a gift from R.W. Johnson Pharmaceutical Research Institute, Raritan, N.J. All retinoids were dissolved in super refined sesame oil (Croda, Inc., Parsippany, N.J.) and stored at −80° C. Since the retinoids are light sensitive, all manipulations involving retinoids were performed under subdued lighting. […] Tumors were measured with calipers weekly, and tumor volumes were calculated using the formula: volume=length×width×height. Tumor growth was determined by the dividing the volume of the tumor at each weekly measurement by the volume on the first day of treatment. Animal weights and clinical signs of overall health status and cutaneous toxicities were recorded weekly.

Series [1] is described as follows: Alanine aminotransferase (ALT) activity in plasma of mice. The class given is in vivo, mouse. As to conditions: end of treatment, 10 mg/kg/day by gavage. As for the experimental part:
At the end of the treatment period, blood was drawn from each animal. Plasma was separated by centrifugation and stored at −70° C. The activity of ALT was determined in aliquots of plasma by standard spectrophotometric enzymatic techniques which are based on the reduction of pyruvate by lactate dehydrogenase (28). The method measures NADH disappearance with time of incubation at 37° C. The activities are expressed as mm/L/min. Two different amounts of plasma were used in each assay to assure measurement of the maximum rate.

The test system of series [2] is ovarian carcinoma organotypic cultures. The series can be described thus: Organotypic culture model of ovarian tumors. The conditions noted are these: 1 μM retinoid in media; 3, 7 or 14 days. Type of series: cell-based, human. As for the experimental part: FIG. 17. Retinoid effects on ovarian carcinoma organotypic cultures. Organotypic cultures of OVCAR-3 (A, B, E, F, I and J), Caov-3 (C and G), SK-OV-3 (D and H), and O2 (K and L) were grown in the absence (−, top row and K) or presence (+, middle row and I, J and L) of retinoid HetA4 at a concentration of 1 μM in the media. All sections were stained with H&E except for I, which was stained with PAS to detect glycoproteins and glandular differentiantion, and J, which was stained with the TUNEL assay to detect apoptosis. All magnifications are 40×.
To test our hypotheses, we evaluated the effects of clinically achievable concentrations of 4-HPR and Flex-Hets on growth, differentiation and apoptosis in ovarian tissue. A series of compounds with a variety of receptor activation profiles were evaluated. In order to evaluate therapeutic effects, we developed an organotypic culture model of ovarian tumors by growing established cell lines and primary cultures inside collagen gels. Monolayer cultures of cells are not accurate representations of in vivo tissue because they lack the types of interactions that cells have with other cells and with the extracellular matrix in vivo. These interactions are known to influence gene expression and thus the constitution and behavior of cells. In our organotypic model, the growth of tumor cells inside the collagen allows a representation of tumors that have invaded stromal tissue. In the presence of fibroblasts, established cell lines and primary cultures of ovarian cancer formed colonies inside the collagen, while normal or benign ovarian epithelial cells remained as single cells inside the collagen. Human ovarian cancer cell lines (OVCAR-3, Caov-3, SK-OV-3, A2780, UCI 101) and primary human cultures (borderline ovarian tumor (O1), serous papillary tumor (O2), benign ovarian cyst (O3)) were cultured inside and on top of a collagen gel seeded with 3T3 fibroblasts for one week. After further incubation in the presence or absence of 1 μM retinoid (media concentration) for 3, 7 or 14 days, cultures were fixed and sectioned for immunohistochemical analysis.

For series [3] the following is noted: women after breast cancer surgery; 200 mg per day for five years versus placebo; cited from earlier work.
The next series has as its system a variety of cell lines. As to conditions: cited from earlier work.
Series [4] relates to SiHa human cervical cell line. As to the kind of experiment: In vitro cytotoxicity (SRB growth inhibition) assay, SiHa. The class given is cell-based. The arrangement: dose or concentration left out as unconfirmed. As to conditions: 72 h. As for the experimental part:
(§1) The SHetA2, SHetA3, SHetA4, SHet50 and 9-cis-RA compounds were evaluated in 4 cervical carcinoma cell lines. The SiHa, CC-1 and C33a human cervical cell lines were maintained in Minimal Essential Media (MEM) containing Earle's salts and L-glutamine supplemented with nonessential amino acids, 1% sodium pyruvate, 10% fetal bovine serum (FBS) and antibiotic/antimycotic. The HT-3 cervical carcinoma cell line was cultured in McCoy's 5a medium supplemented with 10% FBS and antibiotic/antimycotic. Cells were inoculated into 96 well microtiter plates at densities of 1000 cells/well and incubated for 24 h prior to addition of drugs. Drugs were dissolved in dimethyl sulfoxide (DMSO) and diluted in complete medium, prior to addition to triplicate culture wells to achieve final concentrations of […]. Following drug addition, the plates were incubated for 72 h. The assay was terminated by the addition of cold TCA and the cells were stained with 0.4% sulforhodamine B (SRB) in 1% acetic acid. Bound stain was subsequently solubilized with 10 mM trizma base, and the absorbance was read on an automated plate reader at a wavelength of 560 nm. Growth inhibition was determined by dividing the average Optical Density (OD) of the triplicated treated cultures by the average OD of the triplicate control cultures treated with DMSO solvent only. This ratio was converted into a percentage by multiplying by 100. The potency (concentration required to induce half of the maximal activity—GI50) were derived from dose-response graphs generated with results from 3 to 5 individual experiments using GraphPad Software.

Series [5] has as its system CC-1 human cervical cell line. As to the kind of experiment: In vitro cytotoxicity (SRB growth inhibition) assay, CC-1. The class given is cell-based. On the set-up: dose or concentration left out as unconfirmed. The conditions noted are these: 72 h. As for the experimental part: as §1
The subject of series [6] is C33a human cervical cell line. As to the kind of experiment: In vitro cytotoxicity (SRB growth inhibition) assay, C33a. The class given is cell-based. The arrangement: dose or concentration left out as unconfirmed. The conditions noted are these: 72 h. How it is done: as §1
In series [7] the test system is HT-3 cervical carcinoma cell line. The series can be described thus: In vitro cytotoxicity (SRB growth inhibition) assay, HT-3. The arrangement: dose or concentration left out as unconfirmed. The class given is cell-based, human. The conditions noted are these: 72 h. As for the experimental part:
as §1

Series [8] relates to dorsal skin of female Skh hairless mice. As to the kind of experiment: Topical irritancy. The class given is in vivo. As to conditions: mouse, in vivo. How it is done:
Female Skh hairless mice, 6-8 weeks old, were treated topically on the dorsal skin for 4 days over a 2-log concentration dose range with various compounds. Retinoic acid receptor-Hets were evaluated in A, while retinoic acid receptor-independent Flex-Hets were evaluated in B. Daily flaking and abrasion scores were combined to calculate a single cutaneous toxicity score for each mouse. Each treatment group consisted of 4 mice, and group averages were used to plot cutaneous toxicity against doses of the compounds.
Topical irritancy was evaluated according to published procedures (29). Briefly, female Skh hairless mice, 6-8 weeks old, were treated topically on the dorsal skin for 4 days over a 2-log concentration dose range with various compounds. Daily flaking and abrasion scores were combined to calculate a single cutaneous toxicity score for each mouse. Each treatment group consists of 4 mice, and group averages are used to plot cutaneous toxicity against dose of the retinoid compound.

Series [9] has as its system human polycystic kidney disease cells. The series can be described thus: 3-D gel culture model of polycystic kidney disease. The class given is cell-based. As to conditions: 4μM, 3 weeks. How it is done:
FIG. 21. Effects of Flex-Hets on formation of cysts in cultured polycystic kidney disease cells. A primary culture of polycystic kidney cells were grown inside a mixture of collagen I and matrigel and treated with prostaglandin E2 to induce cyst formation. Parallel cultures were treated with 10 micromolar SHetA3 and SHetA4.
The 3-D model of the PKD was developed as described here. Single-cell suspensions of the PCKD cell lines was re-suspended in a 4° C. solution mixture containing rat tail collagen I (Collaborative Biomedical Products, Bedford, Mass.), matrigel (Becton Dickinson) and MEM. The suspension was poured into Falcon cell culture inserts with transparent membranes containing 0.4 μm pores (Becton Dickinson, Franklin Lakes, N.J.) and placed at 37° C. Treatment of cultures was initiated after 1 day of growth and replenished with medium once in every two days. Drugs (Flex-Hets at 4 μM Conc.) and hormones (PGE2 at 25 ng/ml) were administered into the medium surrounding the insert. Untreated control cultures were grown in the same conditions as that of the treated cultures. Drug treatment was carried out for 3 weeks before their effects on growth and inhibition were evaluated.

The conditions of series [10]: biological assays of efficacy; cited from earlier work.

Each structure is given as a SMILES string. “Also recorded” adds a separate entry of the source.

As for `CC1=C(/C=C/C(C)=C/C=C/C(C)=C/C(=O)Nc2ccc(O)cc2)C(C)(C)CCC1` [4-HPR, N-(4-hydroxyphenyl) retinamide], the “growth of xenograft tumors versus sesame oil control” value in the series on OVCAR-3 xenograft tumors was “significantly inhibited the growth; also recorded: significantly less”. Besides, in [1], the “ALT Activity” value was found to be 149.7 ± 140.9 mm/liter/min. Moreover, in series [2], the “induction of apoptosis (TUNEL) in organotypic cultures” value is “Apoptosis was induced”. In [3], the ovarian cancers developed result is “statistically significantly fewer ovarian cancers”. In the series with a variety of cell lines, the “concentration inducing differentiation (receptor-dependent)” value was 1 µM.

On to `CCOC(=O)c1ccc(NC(=O)Nc2ccc3c(c2)C(C)(C)CC(C)(C)S3)cc1` [SHetA4], for which the “Efficacy: percent growth inhibition relative to the untreated control” value stood at 67% in series [4], 59% in series [5], 85% in series [6] and 76% in series [7]. Also, in the series with OVCAR-3 xenograft tumors, the “growth of xenograft tumors versus sesame oil control” value is “significantly less”. Also, the “topical irritancy (cutaneous toxicity score)” value in series [8] is on record as “did not induce topical irritancy”. The “induction of apoptosis (TUNEL) in organotypic cultures” value in [2] is on record as “Apoptosis was induced”. In addition, the “formation of branched tubular structures (differentiated phenotype)” value in series [9] is given as “induced the formation of several branched tubular structures”. Also, the cyst formation result in series [9] (PGE2 at 25 ng/ml) is “completely eliminated cyst formation”.

For `C/C(=C\c1ccc(C(=O)O)cc1)c1ccc2c(c1)C(C)(C)CCC2(C)C` [TTNPB], the “potency relative to RA” value in series [10] is given as 10 fold.

(Values after US20060281806A1, “Treatment and inhibition of disease conditions using flexible heteroarotinoids” (priority 2005, published 2006).)
